# Assay results from article PMC3592791, “Fluorescence-Based High-Throughput Functional Profiling of Ligand-Gated Ion Channels at the Level of Single Cells” (PLoS ONE, 2013).
# Experiments:
# α2 GlyR [1] = target: T1, α2 GlyR (Homo sapiens, UniProt P23416); format: cell-based
# T1 construct: expressed in transfected cells; host or cells: HEK293
# T1 sequence (P23416 28-452): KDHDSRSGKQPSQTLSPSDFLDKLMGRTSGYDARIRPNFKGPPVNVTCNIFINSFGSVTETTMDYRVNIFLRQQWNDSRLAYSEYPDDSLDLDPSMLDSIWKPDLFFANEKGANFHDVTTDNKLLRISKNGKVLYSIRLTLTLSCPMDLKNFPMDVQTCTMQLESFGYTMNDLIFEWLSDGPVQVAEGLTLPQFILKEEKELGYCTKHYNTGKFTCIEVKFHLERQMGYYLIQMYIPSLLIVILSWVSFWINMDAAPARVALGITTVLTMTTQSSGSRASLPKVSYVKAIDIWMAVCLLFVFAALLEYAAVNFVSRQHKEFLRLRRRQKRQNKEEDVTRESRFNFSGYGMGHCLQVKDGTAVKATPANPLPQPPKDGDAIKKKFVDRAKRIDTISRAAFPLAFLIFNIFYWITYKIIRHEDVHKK
# Experimental: (§1) plated into 60-mm culture dishes and were transfected when approx. 80% confluent. YFP and GlyR chloride channel subunits were transfected in 1∶1 (YFP and α1-3 GlyR homomers) or 2∶1∶1 ratio (YFP, GlyR α1-3 homo and α1-3β GlyR heteromers) with a total cDNA quantity of 1 µg. Cells were transfected using calcium phosphate precipitation transfection technique, as described in Sambrook et al.. […] We have published a detailed comparison of five transient transfection methods employed routinely in the laboratory for this purpose.
# (§2) The human α1, α2 and α3 GlyR plasmid DNAs were subcloned into the pcDNA3.1 plasmid vector and the human β subunit plasmid DNA was subcloned into pIRES2-EGFP plasmid vector. The UniprotKB accession numbers for the DNAs are as follows (with gene name in brackets): α1 (GLRA1): P23415, α2 (GLRA2): P23416, α3 (GLRA3): O75311 and β(GLRB): P48167.
# (§3) Following termination of transfection, cells were trypsinized by adding 0.7 mL of 0.25% trypsin–EDTA solution (Gibco BRL), resuspended into DMEM, and 2.5×10^3 cells, suspended in 40 µL DMEM, were plated into each well of a transparent 384-well plate for fluorescence imaging experiments. Cells were used in experiments 24 h later. Individual wells typically contained 5×10^3 cells at the time of the experiment. Approximately 1 h prior to commencement of experiments culture media in 384-well plates were removed by turning the plate upside-down onto a stack of tissue and were left for approximately 30 sec until culture media was entirely removed from the wells. The culture media was replaced by 20 µL standard control solution, which contained (in mM) NaCl 140, KCl 5, CaCl2 2, MgCl2 1, HEPES 10, and glucose 10 (pH 7.4) using NaOH. […] For drug screening experiments agonist solutions were supplemented with strychnine (10, 30, 100 µM), picrotoxin (10, 100 µM) and lindane (10, 100 µM) respectively. Drugs were diluted from stocks in agonist solution according to desired final concentrations. […] Experiments were conducted at room temperature (19–22°C).
# (§4) The maximum image acquisition rate was 1.25 Hz. Solutions containing agonist and drug were pipetted into a 384-well plate and placed onto LC PAL sample holder platform. Liquid handling was performed with the autosampler described above. Solutions were applied to cells at a rate of 0.6 ml/min.
# (§5) Images of fluorescent cells were segmented and quantitatively analyzed using a modified version of DetecTIFF® software. In brief, images were segmented using an iterative size and intensity-based thresholding algorithm and the fluorescence signal of identified cells was calculated as the mean of all pixel values within the area of a cell.
# (§6) This VI uses the Levenberg-Marquardt algorithm to determine the set of parameters that best fit the set of input data points (X, Y) as expressed by the nonlinear function: [drawing 1] where a is the set of parameters. The curve model is defined by the following equation: […]
# α2β GlyR [2] = target: T2, α2β GlyR (Homo sapiens, UniProt P23416+P48167); format: cell-based; settings: drugs at 10 and 100 µM, Fig. 6A
# T2 construct: expressed in transfected cells; host or cells: HEK293
# T2 sequence (P48167 23-497, one chain of several): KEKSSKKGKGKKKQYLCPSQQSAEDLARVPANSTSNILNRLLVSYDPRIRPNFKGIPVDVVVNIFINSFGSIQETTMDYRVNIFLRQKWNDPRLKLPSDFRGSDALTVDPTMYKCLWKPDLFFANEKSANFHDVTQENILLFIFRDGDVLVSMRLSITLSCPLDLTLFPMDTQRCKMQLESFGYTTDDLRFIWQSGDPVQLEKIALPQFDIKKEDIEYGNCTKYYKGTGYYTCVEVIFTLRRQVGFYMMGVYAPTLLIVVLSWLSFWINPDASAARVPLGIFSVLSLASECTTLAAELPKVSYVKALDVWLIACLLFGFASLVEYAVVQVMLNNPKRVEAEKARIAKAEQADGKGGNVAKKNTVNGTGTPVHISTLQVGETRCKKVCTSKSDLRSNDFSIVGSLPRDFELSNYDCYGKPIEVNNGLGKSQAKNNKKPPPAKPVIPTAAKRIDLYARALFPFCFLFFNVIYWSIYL
# Experimental: as §1, §2, §3, §4, §5, §6
# α1 GlyR = target: T3, α1 GlyR (Homo sapiens, UniProt P23415); format: cell-based
# T3 construct: expressed in transfected cells; host or cells: HEK293
# T3 sequence (P23415 29-457): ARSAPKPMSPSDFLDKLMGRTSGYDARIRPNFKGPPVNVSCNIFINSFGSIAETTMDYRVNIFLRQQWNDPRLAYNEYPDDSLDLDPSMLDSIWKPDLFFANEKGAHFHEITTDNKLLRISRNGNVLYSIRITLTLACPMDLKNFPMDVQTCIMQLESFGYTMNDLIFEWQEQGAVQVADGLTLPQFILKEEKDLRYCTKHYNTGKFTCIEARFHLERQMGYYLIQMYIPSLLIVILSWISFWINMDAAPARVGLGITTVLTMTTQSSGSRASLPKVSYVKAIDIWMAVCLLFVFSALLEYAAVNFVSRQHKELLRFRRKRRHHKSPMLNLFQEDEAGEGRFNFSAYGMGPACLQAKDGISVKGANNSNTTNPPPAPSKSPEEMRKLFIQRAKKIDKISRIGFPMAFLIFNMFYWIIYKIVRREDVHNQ
# Experimental: as §1, §2, §3, §4, §5, §6
# α3 GlyR [3] = target: T4, α3 GlyR (Homo sapiens, UniProt O75311); settings: Fig. 3A
# T4 sequence (O75311 34-464): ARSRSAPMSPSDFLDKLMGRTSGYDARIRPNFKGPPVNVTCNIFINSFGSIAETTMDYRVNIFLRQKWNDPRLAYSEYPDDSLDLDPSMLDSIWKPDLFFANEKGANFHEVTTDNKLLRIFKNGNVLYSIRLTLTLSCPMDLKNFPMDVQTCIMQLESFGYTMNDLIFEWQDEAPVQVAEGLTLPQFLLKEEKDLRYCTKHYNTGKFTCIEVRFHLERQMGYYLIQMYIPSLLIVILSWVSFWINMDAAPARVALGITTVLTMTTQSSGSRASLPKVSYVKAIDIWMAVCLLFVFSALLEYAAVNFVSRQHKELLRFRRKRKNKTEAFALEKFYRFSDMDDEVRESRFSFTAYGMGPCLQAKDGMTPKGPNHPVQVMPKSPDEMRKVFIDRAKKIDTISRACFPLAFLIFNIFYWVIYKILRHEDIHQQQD
# Experimental: plated into 60-mm culture dishes and were transfected when approx. 80% confluent. YFP and GlyR chloride channel subunits were transfected in 1∶1 (YFP and α1-3 GlyR homomers) or 2∶1∶1 ratio (YFP, GlyR α1-3 homo and α1-3β GlyR heteromers) with a total cDNA quantity of 1 µg. Cells were transfected using calcium phosphate precipitation transfection technique, as described in Sambrook et al. [37]. Transfection efficiency varies from 20 to 60%. We routinely achieve a correlation of 80 to 90% between cells expressing YFP and cells expressing GlyRs.
# Following termination of transfection, cells were trypsinized by adding 0.7 mL of 0.25% trypsin–EDTA solution (Gibco BRL), resuspended into DMEM, and 2.5×10^3 cells, suspended in 40 µL DMEM, were plated into each well of a transparent 384-well plate for fluorescence imaging experiments. Cells were used in experiments 24 h later. Individual wells typically contained 5×10^3 cells at the time of the experiment. Approximately 1 h prior to commencement of experiments culture media in 384-well plates were removed by turning the plate upside-down onto a stack of tissue and were left for approximately 30 sec until culture media was entirely removed from the wells. […]
# (§9) Images of fluorescent cells were segmented and quantitatively analyzed using a modified version of DetecTIFF® software [40]. In brief, images were segmented using an iterative size and intensity-based thresholding algorithm and the fluorescence signal of identified cells was calculated as the mean of all pixel values within the area of a cell.
# • Goodness of fit (R^2, ≥0.9), to include curve fits that represent the data points to a high degree. • Dynamic range of fluorescence change (ΔF, 20–100%), to include cells co-expressing both, YFPI152L and GlyRs.
# Filter ranges for enrichment of functional data were determined empirically by biological relevance.
# α3β GlyR [4] = target: T5, α3β GlyR (Homo sapiens, UniProt O75311+P48167); settings: read-out: Median half-maximal activation by glycine (EC50), control conditions; no drug, Fig. 4F, n = 122
# T5 sequence (P48167 23-497, one chain of several): as the sequence (P48167 23-497, one chain of several) above
# Experimental: plated into 60-mm culture dishes and were transfected when approx. 80% confluent. YFP and GlyR chloride channel subunits were transfected in 1∶1 (YFP and α1-3 GlyR homomers) or 2∶1∶1 ratio (YFP, GlyR α1-3 homo and α1-3β GlyR heteromers) with a total cDNA quantity of 1 µg. Cells were transfected using calcium phosphate precipitation transfection technique, as described in Sambrook et al. [37]. Transfection efficiency varies from 20 to 60%. We routinely achieve a correlation of 80 to 90% between cells expressing YFP and cells expressing GlyRs. […]
# Following termination of transfection, cells were trypsinized by adding 0.7 mL of 0.25% trypsin–EDTA solution (Gibco BRL), resuspended into DMEM, and 2.5×10^3 cells, suspended in 40 µL DMEM, were plated into each well of a transparent 384-well plate for fluorescence imaging experiments. […]
# as §9
# • Goodness of fit (R^2, ≥0.9), to include curve fits that represent the data points to a high degree. • Dynamic range of fluorescence change (ΔF, 20–100%), to include cells co-expressing both, YFPI152L and GlyRs. […]
# α2 GlyR [5] = target: T1, α2 GlyR; assay: Whole-cell patch-clamp electrophysiology, α2 GlyR; format: cell-based; settings: read-out: % block of EC50 glycine current; 100 µM lindane, HEK293 cells, -40 mV, 4–7 cells, Fig. 5B
# Experimental: (§7) Cells were transfected as described above and plated onto glass coverslips in 3 cm culture dishes. Coverslips containing cells were placed in a recording chamber on the stage of an inverted fluorescent microscope and currents were recorded using the whole-cell patch-clamp configuration. Cells were perfused by extracellular solution containing (in mM): 140 NaCl, 5 KCl, 2 CaCl2, 1 MgCl2, 10 HEPES/NaOH and 10 glucose (pH 7.4 adjusted with NaOH). Patch pipettes were fabricated from borosilicate hematocrit tubing (Hirschmann Laborgeraete, Eberstadt, Germany) and heat polished. […] After establishment of the whole-cell recording configuration, cells were voltage clamped at −40 mV and membrane currents were recorded using an Axopatch 1D and pClamp 10 software (Molecular Devices). Currents were filtered at 500 Hz and digitized at 2 KHz.
# (§8) Because αsubunits can form functional receptors with or without β subunits, it was necessary to confirm that the expressed receptors incorporated β subunits. As the GlyR β subunit cDNA was cloned into the pIRES2-EGFP plasmid vector, we used green fluorescent protein fluorescence to identify cells transfected with the GlyR β subunit. The successful incorporation of β subunits into functional heteromeric GlyRs was also confirmed pharmacologically by their characteristic reduction in […] sensitivity as described below.
# α3 GlyR [6] = target: T4, α3 GlyR; assay: Whole-cell patch-clamp electrophysiology, α3 GlyR; format: cell-based; design: expressed in transfected cells; host or cells: HEK293; settings: read-out: % block of EC50 glycine current; 100 µM lindane, HEK293 cells, -40 mV, 4–7 cells, Fig. 5B
# Experimental: as §7, §8
# α3β GlyR [7] = target: T5, α3β GlyR; assay: Whole-cell patch-clamp electrophysiology, α3β GlyR; format: cell-based; design: expressed in transfected cells; host or cells: HEK293; settings: read-out: % block of EC50 glycine current; 100 µM lindane, HEK293 cells, -40 mV, 4–7 cells, Fig. 5B
# Experimental: as §7, §8
# α2β GlyR [8] = target: T2, α2β GlyR; assay: Whole-cell patch-clamp electrophysiology, α2β GlyR; format: cell-based; settings: read-out: % block of EC50 glycine current; 100 µM lindane, HEK293 cells, -40 mV, 4–7 cells, Fig. 5B
# Experimental: as §7, §8
compound,measurement,setting,value
picrotoxin,Effect on receptor (color map of median glycine EC50),"α2 GlyR [1]; drugs at 10 and 100 µM, Fig. 6A",overall less block of homomeric α2 GlyRs by picrotoxin compared to lindane
same,Effect on receptor (color map of median glycine EC50),α2β GlyR [2],no inhibition
NCC(=O)O [glycine],"Slope value, averaged",α2 GlyR [1],2.92±0.09
same,"Slope values, range over single cells",α2 GlyR [1],0.51–4.73
same,"Slope value, averaged",α1 GlyR,1.19±0.03
same,"Slope values, range over single cells",α1 GlyR,0.47–1.92
same,"Slope value, averaged",α3 GlyR [3]; glycine dose-response,0.91±0.03
same,"Slope values, range over single cells",α3 GlyR [3]; glycine dose-response,0.39–3.43
same,EC50,"α3 GlyR [3]; read-out: Averaged glycine EC50, HEK293 cells, individual well, n = 212 cells",186 ± 17 µM
same,EC50,α3β GlyR [4],46.8 ± 4 µM
"Cl[C@H]1[C@H](Cl)[C@@H](Cl)[C@@H](Cl)[C@H](Cl)[C@H]1Cl [lindane, γ-hexachlorocyclohexane]",inhibition at 100 µM,α2 GlyR [5],94 ± 5%
same,inhibition at 100 µM,α3 GlyR [6],96 ± 4%
same,Effect on receptor (color map of median glycine EC50),α2β GlyR [2],no inhibition
same,inhibition at 100 µM,α3β GlyR [7],14 ± 3%
same,inhibition at 100 µM,α2β GlyR [8],23 ± 4%
O=C1C[C@@H]2OCC=C3CN4CC[C@]56c7ccccc7N1[C@H]5[C@H]2[C@H]3C[C@H]46 [strychnine],Effect on receptor (color map of median glycine EC50),α2β GlyR [2],inhibition
